Tested on: Wheat and Barley and test plant species
Assay: Post-emergent Test III, herbicidal activity in wheat and barley (Table 17; visual injury, GR20/GR50/GR80/GR90)
Format: in vivo
Conditions: 21 d; for Visual Growth Reduction (%) 21 Days After Application, CIRAR / Visual Growth Reduction (%) 21 Days After Application, GALAP / Visual Growth Reduction (%) 21 Days After Application, HORVS / Visual Growth Reduction (%) 21 Days After Application, KCHSC / Visual Growth Reduction (%) 21 Days After Application, LAMPU / Visual Growth Reduction (%) 21 Days After Application, MATCH / Visual Growth Reduction (%) 21 Days After Application, PAPRH / Visual Growth Reduction (%) 21 Days After Application, SASKR / Visual Growth Reduction (%) 21 Days After Application, SINAR / Visual Growth Reduction (%) 21 Days After Application, TRZAS / Visual Growth Reduction (%) 21 Days After Application, VERPE / Visual Growth Reduction (%) 21 Days After Application, VIOTR: post-emergent
Procedure: Post-emergent Test III. Seeds of the desired test plant species were planted in Sun Gro MetroMix® 306 planting mixture, which typically has a pH of 6.0 to 6.8 and an organic matter content of about 30 percent, in plastic pots with a surface area of 103.2 square centimeters (cm^2). When required to ensure good germination and healthy plants, a fungicide treatment and/or other chemical or physical treatment was applied. The plants were grown for 7-36 days (d) in a greenhouse with an approximate 14 hour (h) photoperiod which was maintained at about 18° C. during the day and 17° C. during the night. Nutrients and water were added on a regular basis and supplemental lighting was provided with overhead metal halide 1000-Watt lamps as necessary. The plants were employed for testing when they reached the second or third true leaf stage.
A weighed amount, determined by the highest rate to be tested, of each test compound was placed in a 25 mL glass vial and was dissolved in 4 mL of a 97:3 v/v mixture of acetone and DMSO to obtain concentrated stock solutions. […] The concentrated stock solutions obtained were diluted with 20 mL of an aqueous mixture containing acetone, water, isopropyl alcohol, DMSO, Agri-Dex crop oil concentrate, and X-77 surfactant in a 48:39:10:1.5:1.5:0.02 v/v ratio to obtain spray solutions containing the highest application rates. Additional application rates were obtained by serial dilution of 12 mL of the high rate solution into a solution containing 2 mL of 97:3 v/v mixture of acetone and DMSO and 10 mL of an aqueous mixture containing acetone, water, isopropyl alcohol, DMSO, Agri-Dex crop oil concentrate, and X-77 surfactant in a 48:39:10:1.5:1.5:0.02 v/v ratio to obtain 1/2×, 1/4×, 1/8× and 1/16× rates of the high rate. Compound requirements are based upon a 12 mL application volume at a rate of 187 liters per hectare (L/ha). Formulated compounds were applied to the plant material with an overhead Mandel track sprayer equipped with 8002E nozzles calibrated to deliver 187 L/ha over an application area of 0.503 square meters at a spray height of 18 inches (43 cm) above the average plant canopy height. Control plants were sprayed in the same manner with the solvent blank.
The treated plants and control plants were placed in a greenhouse as described above and watered by subirrigation to prevent wash-off of the test compounds. After 21 d, the condition of the test plants as compared with that of the untreated plants was determined visually and scored on a scale of 0 to 100 percent where 0 corresponds to no injury and 100 corresponds to complete kill. By applying the well-accepted probit analysis as described by J. Berkson in Journal of the American Statistical […], 48, 565 (1953) and by D. Finney in “Probit Analysis” Cambridge University Press (1952), the above data can be used to calculate GR20, GR50, GR80 and GR90 values, which are defined as growth reduction factors that correspond to the effective dose of herbicide required to kill or control 20 percent, 50 percent, 80 percent or 90 percent, respectively, of a target plant.

COC(=O)c1nc(-c2ccc3cc[nH]c3c2F)c(F)c(N)c1Cl [Compound 1.15, Methyl 4-amino-3-chloro-5-fluoro-6-(7-fluoro-1H-indol-6-yl)picolinate]
Visual Growth Reduction (%) 21 Days After Application, CIRAR (CIRAR, 17.5 g ai/ha): F (30-44)
Visual Growth Reduction (%) 21 Days After Application, CIRAR (CIRAR, 35 g ai/ha): D (60-74)
Visual Growth Reduction (%) 21 Days After Application, CIRAR (CIRAR, 70 g ai/ha): C (75-84)
GR50, CIRAR (CIRAR, dose for 50 percent growth reduction, probit analysis): 30 g ai/ha
GR80, CIRAR (CIRAR, dose for 80 percent growth reduction, probit analysis): 70 g ai/ha
GR90, CIRAR (CIRAR, dose for 90 percent growth reduction, probit analysis): 109 g ai/ha
Visual Growth Reduction (%) 21 Days After Application, GALAP (GALAP, 17.5 g ai/ha): D (60-74)
Visual Growth Reduction (%) 21 Days After Application, GALAP (GALAP, 35 g ai/ha): B (85-94)
Visual Growth Reduction (%) 21 Days After Application, GALAP (GALAP, 70 g ai/ha): A (95-100)
GR50, GALAP (GALAP, dose for 50 percent growth reduction, probit analysis): 9 g ai/ha
GR80, GALAP (GALAP, dose for 80 percent growth reduction, probit analysis): 23 g ai/ha
GR90, GALAP (GALAP, dose for 90 percent growth reduction, probit analysis): 37 g ai/ha
Visual Growth Reduction (%) 21 Days After Application, HORVS (HORVS, 17.5 g ai/ha): F (30-44)
Visual Growth Reduction (%) 21 Days After Application, HORVS (HORVS, 35 g ai/ha): E (45-59)
Visual Growth Reduction (%) 21 Days After Application, HORVS (HORVS, 70 g ai/ha): E (45-59)
GR20, HORVS (HORVS, dose for 20 percent growth reduction, probit analysis): 8 g ai/ha
Visual Growth Reduction (%) 21 Days After Application, KCHSC (KCHSC, 17.5 g ai/ha): D (60-74)
Visual Growth Reduction (%) 21 Days After Application, KCHSC (KCHSC, 35 g ai/ha): B (85-94)
Visual Growth Reduction (%) 21 Days After Application, KCHSC (KCHSC, 70 g ai/ha): B (85-94)
GR50, KCHSC (KCHSC, dose for 50 percent growth reduction, probit analysis): 6 g ai/ha
GR80, KCHSC (KCHSC, dose for 80 percent growth reduction, probit analysis): 28 g ai/ha
GR90, KCHSC (KCHSC, dose for 90 percent growth reduction, probit analysis): 67 g ai/ha
Visual Growth Reduction (%) 21 Days After Application, LAMPU (LAMPU, 17.5 g ai/ha): A (95-100)
Visual Growth Reduction (%) 21 Days After Application, LAMPU (LAMPU, 35 g ai/ha): A (95-100)
Visual Growth Reduction (%) 21 Days After Application, LAMPU (LAMPU, 70 g ai/ha): A (95-100)
GR50, LAMPU (LAMPU, dose for 50 percent growth reduction, probit analysis): 0.10 g ai/ha
GR80, LAMPU (LAMPU, dose for 80 percent growth reduction, probit analysis): 1 g ai/ha
GR90, LAMPU (LAMPU, dose for 90 percent growth reduction, probit analysis): 2 g ai/ha
Visual Growth Reduction (%) 21 Days After Application, MATCH (MATCH, 17.5 g ai/ha): F (30-44)
Visual Growth Reduction (%) 21 Days After Application, MATCH (MATCH, 35 g ai/ha): E (45-59)
Visual Growth Reduction (%) 21 Days After Application, MATCH (MATCH, 70 g ai/ha): D (60-74)
GR50, MATCH (MATCH, dose for 50 percent growth reduction, probit analysis): 45 g ai/ha
GR80, MATCH (MATCH, dose for 80 percent growth reduction, probit analysis): >140 g ai/ha
GR90, MATCH (MATCH, dose for 90 percent growth reduction, probit analysis): >140 g ai/ha
Visual Growth Reduction (%) 21 Days After Application, PAPRH (PAPRH, 17.5 g ai/ha): A (95-100)
Visual Growth Reduction (%) 21 Days After Application, PAPRH (PAPRH, 35 g ai/ha): A (95-100)
Visual Growth Reduction (%) 21 Days After Application, PAPRH (PAPRH, 70 g ai/ha): A (95-100)
GR50, PAPRH (PAPRH, dose for 50 percent growth reduction, probit analysis): 0.06 g ai/ha
GR80, PAPRH (PAPRH, dose for 80 percent growth reduction, probit analysis): 1 g ai/ha
GR90, PAPRH (PAPRH, dose for 90 percent growth reduction, probit analysis): 2 g ai/ha
Visual Growth Reduction (%) 21 Days After Application, SASKR (SASKR, 17.5 g ai/ha): C (75-84)
Visual Growth Reduction (%) 21 Days After Application, SASKR (SASKR, 35 g ai/ha): C (75-84)
Visual Growth Reduction (%) 21 Days After Application, SASKR (SASKR, 70 g ai/ha): B (85-94)
GR50, SASKR (SASKR, dose for 50 percent growth reduction, probit analysis): 7 g ai/ha
GR80, SASKR (SASKR, dose for 80 percent growth reduction, probit analysis): 30 g ai/ha
GR90, SASKR (SASKR, dose for 90 percent growth reduction, probit analysis): 95 g ai/ha
Visual Growth Reduction (%) 21 Days After Application, SINAR (SINAR, 17.5 g ai/ha): A (95-100)
Visual Growth Reduction (%) 21 Days After Application, SINAR (SINAR, 35 g ai/ha): A (95-100)
Visual Growth Reduction (%) 21 Days After Application, SINAR (SINAR, 70 g ai/ha): A (95-100)
GR50, SINAR (SINAR, dose for 50 percent growth reduction, probit analysis): 4 g ai/ha
GR80, SINAR (SINAR, dose for 80 percent growth reduction, probit analysis): 8 g ai/ha
GR90, SINAR (SINAR, dose for 90 percent growth reduction, probit analysis): 12 g ai/ha
Visual Growth Reduction (%) 21 Days After Application, TRZAS (TRZAS, 17.5 g ai/ha): F (30-44)
Visual Growth Reduction (%) 21 Days After Application, TRZAS (TRZAS, 35 g ai/ha): E (45-59)
Visual Growth Reduction (%) 21 Days After Application, TRZAS (TRZAS, 70 g ai/ha): D (60-74)
GR20, TRZAS (TRZAS, dose for 20 percent growth reduction, probit analysis): 13 g ai/ha
Visual Growth Reduction (%) 21 Days After Application, VERPE (VERPE, 17.5 g ai/ha): A (95-100)
Visual Growth Reduction (%) 21 Days After Application, VERPE (VERPE, 35 g ai/ha): A (95-100)
Visual Growth Reduction (%) 21 Days After Application, VERPE (VERPE, 70 g ai/ha): A (95-100)
GR50, VERPE (VERPE, dose for 50 percent growth reduction, probit analysis): 0.28 g ai/ha
GR80, VERPE (VERPE, dose for 80 percent growth reduction, probit analysis): 2 g ai/ha
GR90, VERPE (VERPE, dose for 90 percent growth reduction, probit analysis): 6 g ai/ha
Visual Growth Reduction (%) 21 Days After Application, VIOTR (VIOTR, 17.5 g ai/ha): E (45-59)
Visual Growth Reduction (%) 21 Days After Application, VIOTR (VIOTR, 35 g ai/ha): D (60-74)
Visual Growth Reduction (%) 21 Days After Application, VIOTR (VIOTR, 70 g ai/ha): C (75-84)
GR50, VIOTR (VIOTR, dose for 50 percent growth reduction, probit analysis): 22 g ai/ha
GR80, VIOTR (VIOTR, dose for 80 percent growth reduction, probit analysis): 63 g ai/ha
GR90, VIOTR (VIOTR, dose for 90 percent growth reduction, probit analysis): 111 g ai/ha

— patent publication US20170050957A1, “4-AMINO-6-(HETEROCYCLIC)PICOLINATES AND 6-AMINO-2-(HETEROCYCLIC)PYRIMIDINE-4-CARBOXYLATES AND THEIR USE AS HERBICIDES” (Dow AgroSciences LLC, priority 2013, published 2017)
